Here are results for 10 sequences from US12699090B2 (priority 2019, dated 2026).

“Also recorded” adds a separate entry of the source.

This assay has as its system PBMCs isolated from naturally M. bovis-infected cattle. The class given is cell-based, cattle (Bos taurus taurus).

With “MTENLTVQPERLGVLASHHDNAAVDASSGVEAAAGLGESV (artificial protein fragment) [compound 9, long Rv3615c fragment]”, the “recognition of individual peptide (IFN-γ ELISPOT response, Z-scores)” value (from here on “recognition of individual peptide”) is “poorly recognized”.

In the case of “AITHGPYCSQFNDTLNVYLT (artificial protein fragment) [compound 39, short Rv3615c peptide]”, the “recognition of individual peptide” value is “poor recognition could be compensated”.

On to “AANKQKQELDEISTNIRQAGVQYSRADEEQQQALSSQMGF [compound 8]”, for which the “recognition of individual peptide” value is “far stronger response”.

Regarding “AITHGPYCSQFNDTLNVYLTAHNALGSSLHTAGVDLAKSL (artificial protein fragment) [compound 10, long Rv3615c fragment]”, the “recognition of individual peptide” value is listed as “poorly recognized”.

Take “KQSLTKLAAAWGGSGS (artificial protein fragment) [peptide 17, short ESAT-6 peptide]”: the “recognition of individual peptide” value is “strong epitope”.

“GQWRGAAGTAAQAAVVRFQEAANKQKQELDEISTNIRQAG [compound 7]”: the “recognition of individual peptide” value is listed as “far stronger response”.

Regarding “MAEMKTDAATLAQEAGNFERISGDLKTQIDQVESTAGSLQ [compound 5]”, the “recognition of individual peptide” value is “poorly recognized”.

For the sequence “NVTSIHSLLDEGKQSLTKLAAAWGGSGSEAYQGVQQKWDA [peptide 2]”, the “recognition of individual peptide” value was “poorly and infrequently recognized”.

For the sequence QEAGNFERISGDLKTQ [peptide 25], the “recognition of individual peptide” value is reported as “strongly recognized; also recorded: recognized promiscuously”.

For “SHHDNAAVDASSGVEAAAGL (artificial protein fragment) [compound 36, short Rv3615c peptide]”, the “recognition of individual peptide” value was “poor recognition could be compensated”.
